Experimental data taken from patent US8399452B2, “Dibenzo[b,f][1,4]oxazepin-11-yl-N-hydroxybenzamides as HDAC inhibitors” (Methylgene Inc., priority 2006, dated 2013).

The compounds below were run against histone deacetylase (HDAC Enzyme) (assay: Inhibition of Histone Deacetylase Enzymatic Activity (Boc-Lys(Ac)-AMC, Fluor-de-Lys developer)). Details: Table 9; read-out: HDAC Inhibition (IC50 μM) HDAC Enzyme.
Format: biochemical
Experimental: The following protocol is used to assay the compounds of the invention.
The mixture is pre-incubated for 5 minutes at room temperature. The reaction is started by bringing the temperature to 37° C. and adding 16 μl substrate. Total reaction volume is 50 μl.
In the Tables 8, 9 and 10, A≦[…]<B≦0.1 μM; 0.1 μM<C≦1 μM; and 1 μM<D≦10 μM.

Compound | IC50
O=C(NO)c1cnc(N2C[C@@H]3C[C@H]2CN3c2cccc(C(F)(F)F)c2)nc1 [N-hydroxy-2-((1S,4S)-5-(3-(trifluoromethyl)phenyl)-2,5-diazabicyclo[2.2.1]heptan-2-yl)pyrimidine-5-carboxamide] | < 0.05 µM
O=C(NO)c1cnc(N2C[C@@H]3C[C@H]2CN3c2cccc(C(F)(F)F)c2)s1 [N-hydroxy-2-((1S,4S)-5-(3-(trifluoromethyl)phenyl)-2,5-diazabicyclo[2.2.1]heptan-2-yl)thiazole-5-carboxamide] | < 0.05 µM
O=C(NO)c1cnc(N2C[C@@H]3C[C@H]2CN3c2cccc(SC(F)(F)F)c2)nc1 [N-hydroxy-2-((1S,4S)-5-(3-(trifluoromethylthio)phenyl)-2,5-diazabicyclo[2.2.1]heptan-2-yl)pyrimidine-5-carboxamide] | < 0.05 µM
COc1cccc(N2C[C@@H]3C[C@H]2CN3c2ncc(C(=O)NO)cn2)c1 [N-hydroxy-2-((1S,4S)-5-(3-methoxyphenyl)-2,5-diazabicyclo[2.2.1]heptan-2-yl)pyrimidine-5-carboxamide] | < 0.05 µM
O=C(NO)c1cnc(N2C[C@@H]3C[C@H]2CN3c2ccc(C(F)(F)F)cc2)nc1 [N-hydroxy-2-((1S,4S)-5-(4-(trifluoromethyl)phenyl)-2,5-diazabicyclo[2.2.1]heptan-2-yl)pyrimidine-5-carboxamide] | < 0.05 µM
O=C(NO)c1cnc(N2C[C@@H]3C[C@H]2CN3c2cc(C(F)(F)F)ccn2)nc1 [N-hydroxy-2-((1S,4S)-5-(4-(trifluoromethyl)pyridin-2-yl)-2,5-diazabicyclo[2.2.1]heptan-2-yl)pyrimidine-5-carboxamide] | < 0.05 µM
O=C(NO)c1cnc(N2C[C@@H]3C[C@H]2CN3c2nccc(C(F)(F)F)n2)nc1 [N-hydroxy-2-((1S,4S)-5-(4-(trifluoromethyl)pyrimidin-2-yl)-2,5-diazabicyclo[2.2.1]heptan-2-yl)pyrimidine-5-carboxamide] | < 0.05 µM
O=C(NO)c1cnc(N2C[C@@H]3C[C@H]2CN3c2cncc(C(F)(F)F)c2)nc1 [N-hydroxy-2-((1S,4S)-5-(5-(trifluoromethyl)pyridin-3-yl)-2,5-diazabicyclo[2.2.1]heptan-2-yl)pyrimidine-5-carboxamide] | < 0.05 µM
O=C(NO)c1cnc(N2C[C@@H]3C[C@H]2CN3c2cccc(C(F)(F)F)n2)nc1 [N-hydroxy-2-((1S,4S)-5-(6-(trifluoromethyl)pyridin-2-yl)-2,5-diazabicyclo[2.2.1]heptan-2-yl)pyrimidine-5-carboxamide] | < 0.05 µM
O=C(NO)c1cnc(N2C[C@@H]3C[C@H]2CN3C(=O)N2CCCC2)nc1 [N-hydroxy-2-((1S,4S)-5-(pyrrolidine-1-carbonyl)-2,5-diazabicyclo[2.2.1]heptan-2-yl)pyrimidine-5-carboxamide] | 0.05 to 0.1 µM
Cc1cccc(N2C[C@@H]3C[C@H]2CN3c2ncc(C(=O)NO)cn2)c1 [N-hydroxy-2-((1S,4S)-5-m-tolyl-2,5-diazabicyclo[2.2.1]heptan-2-yl)pyrimidine-5-carboxamide] | < 0.05 µM
Cc1ccccc1N1C[C@@H]2C[C@H]1CN2c1ncc(C(=O)NO)cn1 [N-hydroxy-2-((1S,4S)-5-o-tolyl-2,5-diazabicyclo[2.2.1]heptan-2-yl)pyrimidine-5-carboxamide] | 0.05 to 0.1 µM
Cc1ccc(N2C[C@@H]3C[C@H]2CN3c2ncc(C(=O)NO)cn2)cc1 [N-hydroxy-2-((1S,4S)-5-p-tolyl-2,5-diazabicyclo[2.2.1]heptan-2-yl)pyrimidine-5-carboxamide] | < 0.05 µM
O=C(NO)c1cnc(N2C[C@@H]3C[C@H]2CN3c2ccccc2)nc1 [N-hydroxy-2-((1S,4S)-5-phenyl-2,5-diazabicyclo[2.2.1]heptan-2-yl)pyrimidine-5-carboxamide] | 0.05 to 0.1 µM
COc1cccc(N2CC3CC2CN3c2ccc(C(=O)NO)cc2)c1 (centres unmarked) [N-hydroxy-4-(5-(3-methoxyphenyl)-2,5-diazabicyclo[2.2.1]heptan-2-yl)benzamide] | 0.1 to 1 µM
Cc1cccc(N2CC3CC2CN3c2ccc(C(=O)NO)cc2)c1 (centres unmarked) [N-hydroxy-4-(5-m-tolyl-2,5-diazabicyclo[2.2.1]heptan-2-yl)benzamide] | 0.1 to 1 µM
O=C(NO)c1ccc(N2C[C@H]3C[C@@H]2CN3c2cc(C(F)(F)F)ccn2)cc1 [N-hydroxy-4-((1R,4R)-5-(4-(trifluoromethyl)pyridin-2-yl)-2,5-diazabicyclo[2.2.1]heptan-2-yl)benzamide] | 1 to 10 µM
Cc1cccc(N2C[C@H]3C[C@@H]2CN3c2ccc(C(=O)NO)cc2)c1 [N-hydroxy-4-((1R,4R)-5-m-tolyl-2,5-diazabicyclo[2.2.1]heptan-2-yl)benzamide] | 0.1 to 1 µM
O=C(NO)c1ccc(N2C[C@@H]3C[C@H]2CN3c2cccc(C(F)(F)F)c2)cc1 [N-hydroxy-4-((1S,4S)-5-(3-(trifluoromethyl)phenyl)-2,5-diazabicyclo[2.2.1]heptan-2-yl)benzamide] | 0.1 to 1 µM
O=C(NO)c1ccc(N2C[C@@H]3C[C@H]2CN3c2cc(C(F)(F)F)ccn2)cc1 [N-hydroxy-4-((1S,4S)-5-(4-(trifluoromethyl)pyridin-2-yl)-2,5-diazabicyclo[2.2.1]heptan-2-yl)benzamide] | 0.1 to 1 µM
Cc1ccc(N2C[C@@H]3C[C@H]2CN3c2ccc(C(=O)NO)cc2)cc1 [N-hydroxy-4-((1S,4S)-5-p-tolyl-2,5-diazabicyclo[2.2.1]heptan-2-yl)benzamide] | 0.1 to 1 µM

Results, then the compound that gave them:

IC50 | Compound
0.1 to 1 µM | O=C(NO)c1cnc(N2C[C@@H]3C[C@H]2CN3c2cccc(C(F)(F)F)c2)cn1 [N-hydroxy-5-((1S,4S)-5-(3-(trifluoromethyl)phenyl)-2,5-diazabicyclo[2.2.1]heptan-2-yl)pyrazine-2-carboxamide]
< 0.05 µM | Cc1ccc(N2CC3CC2CN3c2ccc(C(=O)NO)cn2)cc1 (centres unmarked) [N-hydroxy-6-(5-p-tolyl-2,5-diazabicyclo[2.2.1]heptan-2-yl)nicotinamide]
0.1 to 1 µM | O=C(NO)c1ccc(N2C[C@@H]3C[C@H]2CN3c2cccc(C(F)(F)F)c2)nn1 [N-hydroxy-6-((1S,4S)-5-(3-(trifluoromethyl)phenyl)-2,5-diazabicyclo[2.2.1]heptan-2-yl)pyridazine-3-carboxamide]

Same assay, conditions: Table 10; read-out: HDAC Inhibition (IC50 μM) HDAC Enzyme

Compound | IC50
CN1CCc2[nH]c3ccc(C(=O)NO)cc3c2C1 [N-hydroxy-2-methyl-2,3,4,5-tetrahydro-1H-pyrido[4,3-b]indole-8-carboxamide] | 1 to 10 µM
O=C(CCc1ccc(CN2C(=O)c3ccccc3Oc3ccccc32)cc1)NO [N-hydroxy-3-(4-((11-oxodibenzo[b,f][1,4]oxazepin-10(11H)-yl)methyl)phenyl)propanamide] | 0.1 to 1 µM
O=C(NO)c1ccc(C#CCN2C(=O)c3ccccc3Oc3ccccc32)cc1 [N-hydroxy-4-(3-(11-oxodibenzo[b,f][1,4]oxazepin-10(11H)-yl)prop-1-ynyl)benzamide] | < 0.05 µM
O=C(NO)c1ccc(CCCN2C(=O)c3ccccc3Oc3ccccc32)cc1 [N-hydroxy-4-(3-(11-oxodibenzo[b,f][1,4]oxazepin-10(11H)-yl)propyl)benzamide] | 0.05 to 0.1 µM
O=C(NO)c1ccc(N2C(=O)c3ccccc3Oc3ccccc32)cc1 [N-hydroxy-4-(11-oxodibenzo[b,f][1,4]oxazepin-10(11H)-yl)benzamide] | 0.1 to 1 µM
O=C(NO)c1ccc(Cn2c(-c3ccccc3)cc3ccccc32)cc1 [N-hydroxy-4-((2-phenyl-1H-indol-1-yl)methyl)benzamide] | 0.1 to 1 µM

Now from value to compound:

IC50 | Compound
0.1 to 1 µM | O=C(NO)c1ccc(CN2C(=O)c3ccccc3CCc3ccccc32)cc1 [N-hydroxy-4-((6-oxo-11,12-dihydrodibenzo[b,f]azocin-5(6H)-yl)methyl)benzamide]
< 0.05 µM | O=C(NO)c1ccc(Cn2c(=O)c3ccccc3c3ccccc32)cc1 [N-hydroxy-4-((6-oxophenanthridin-5(6H)-yl)methyl)benzamide]
< 0.05 µM | O=C(NO)c1ccc(CN2C(=O)c3ccccc3Oc3ccccc32)cc1 [N-hydroxy-4-((11-oxodibenzo[b,f][1,4]oxazepin-10(11H)-yl)methyl)benzamide]
< 0.05 µM | O=C(CCCCCN1C(=O)c2ccccc2Oc2ccccc21)NO [N-hydroxy-6-(11-oxodibenzo[b,f][1,4]oxazepin-10(11H)-yl)hexanamide]
< 0.05 µM | O=C(CCCCCCn1c(=O)c2ccccc2c2ccccc21)NO [N-hydroxy-7-(6-oxophenanthridin-5(6H)-yl)heptanamide]
< 0.05 µM | O=C(CCCCCCN1C(=O)c2ccccc2Oc2ccccc21)NO [N-hydroxy-7-(11-oxodibenzo[b,f][1,4]oxazepin-10(11H)-yl)heptanamide]
< 0.05 µM | O=C(CCCCCCN1C(=O)c2ccccc2Sc2ccccc21)NO [N-hydroxy-7-(11-oxodibenzo[b,f][1,4]thiazepin-10(11H)-yl)heptanamide]
< 0.05 µM | O=C(CCCCCCOc1nc2ccccc2c2ccccc12)NO [N-hydroxy-7-(phenanthridin-6-yloxy)heptanamide]
0.05 to 0.1 µM | O=C(CCCCCCCN1C(=O)c2ccccc2Oc2ccccc21)NO [N-hydroxy-8-(11-oxodibenzo[b,f][1,4]oxazepin-10(11H)-yl)octanamide]
1 to 10 µM | O=C(NO)c1cc2c(cn1)[nH]c1ccccc12 [N-hydroxy-9H-pyrido[3,4-b]indole-3-carboxamide]
< 0.05 µM | O=CN(O)CCCCCCN1C(=O)c2ccccc2Oc2ccccc21 [N-hydroxy-N-(6-(11-oxodibenzo[b,f][1,4]oxazepin-10(11H)-yl)hexyl)formamide]
0.05 to 0.1 µM | O=C(NO)c1cnc(N2CCCN(C(=O)OCc3ccccc3)CC2)nc1 [benzyl 4-(5-(hydroxycarbamoyl)pyrimidin-2-yl)-1,4-diazepane-1-carboxylate]
0.1 to 1 µM | (Z)-N-(5H-dibenzo[b,f]azepin-5-yl)methyl)benzyl)-N-hydroxyformamide

Same assay, conditions: read-out: HDAC Inhibtion (IC50 μM) HDAC Enzyme

IC50 | Compound
0.1 to 1 µM | CN1c2ccccc2Oc2ccccc2C1c1ccc(C(=O)NO)cc1 (centres unmarked) [N-hydroxy-4-(10-methyl-10,11-dihydrodibenzo[b,f][1,4]oxazepin-11-yl)benzamide]
